Source: BigSolDB 2.1

## NC(=O)N/N=C/c1ccc([N+](=O)[O-])o1
In DMF, 278.15 K
  solubility (mole fraction): 0.0194
In DMF, 283.15 K
  solubility (mole fraction): 0.0202
In DMF, 288.15 K
  solubility (mole fraction): 0.0207
In DMF, 293.15 K
  solubility (mole fraction): 0.0223
In DMF, 298.15 K
  solubility (mole fraction): 0.023
In DMF, 303.15 K
  solubility (mole fraction): 0.0255
In DMF, 308.15 K
  solubility (mole fraction): 0.0265
In DMF, 313.15 K
  solubility (mole fraction): 0.0279
In acetone, 278.15 K
  solubility (mole fraction): 0.000291
In acetone, 283.15 K
  solubility (mole fraction): 0.000339
In acetone, 288.15 K
  solubility (mole fraction): 0.00038
In acetone, 293.15 K
  solubility (mole fraction): 0.000435
In acetone, 298.15 K
  solubility (mole fraction): 0.000501
In acetone, 303.15 K
  solubility (mole fraction): 0.00056
In acetone, 308.15 K
  solubility (mole fraction): 0.000641
In acetone, 313.15 K
  solubility (mole fraction): 0.000749
In acetonitrile, 278.15 K
  solubility (mole fraction): 7.32e-05
In acetonitrile, 283.15 K
  solubility (mole fraction): 9.44e-05
In acetonitrile, 288.15 K
  solubility (mole fraction): 0.000116
In acetonitrile, 293.15 K
  solubility (mole fraction): 0.000146
In acetonitrile, 298.15 K
  solubility (mole fraction): 0.000168
In acetonitrile, 303.15 K
  solubility (mole fraction): 0.000204
In acetonitrile, 308.15 K
  solubility (mole fraction): 0.000246
In acetonitrile, 313.15 K
  solubility (mole fraction): 0.000293
In ethanol, 278.15 K
  solubility (mole fraction): 5.89e-05
In ethanol, 283.15 K
  solubility (mole fraction): 7.3e-05
In ethanol, 288.15 K
  solubility (mole fraction): 8.98e-05
In ethanol, 293.15 K
  solubility (mole fraction): 0.000112
In ethanol, 298.15 K
  solubility (mole fraction): 0.000136
In ethanol, 303.15 K
  solubility (mole fraction): 0.000165
In ethanol, 308.15 K
  solubility (mole fraction): 0.000203
In ethanol, 313.15 K
  solubility (mole fraction): 0.000247
In ethyl acetate, 278.15 K
  solubility (mole fraction): 7.69e-05
In ethyl acetate, 283.15 K
  solubility (mole fraction): 8.31e-05
In ethyl acetate, 288.15 K
  solubility (mole fraction): 9.59e-05
In ethyl acetate, 293.15 K
  solubility (mole fraction): 0.000116
In ethyl acetate, 298.15 K
  solubility (mole fraction): 0.00013
In ethyl acetate, 303.15 K
  solubility (mole fraction): 0.000151
In ethyl acetate, 308.15 K
  solubility (mole fraction): 0.000172
In ethyl acetate, 313.15 K
  solubility (mole fraction): 0.000202
In formamide, 278.15 K
  solubility (mole fraction): 0.00131
In formamide, 283.15 K
  solubility (mole fraction): 0.00154
In formamide, 288.15 K
  solubility (mole fraction): 0.00178
In formamide, 293.15 K
  solubility (mole fraction): 0.00205
In formamide, 298.15 K
  solubility (mole fraction): 0.0024
In formamide, 303.15 K
  solubility (mole fraction): 0.00273
In formamide, 308.15 K
  solubility (mole fraction): 0.00313
In formamide, 313.15 K
  solubility (mole fraction): 0.00359
In isopropanol, 278.15 K
  solubility (mole fraction): 2.66e-05
In isopropanol, 283.15 K
  solubility (mole fraction): 3.27e-05
In isopropanol, 288.15 K
  solubility (mole fraction): 4.03e-05
In isopropanol, 293.15 K
  solubility (mole fraction): 5.09e-05
In isopropanol, 298.15 K
  solubility (mole fraction): 6.47e-05
In isopropanol, 303.15 K
  solubility (mole fraction): 8.79e-05
In isopropanol, 308.15 K
  solubility (mole fraction): 0.000116
In isopropanol, 313.15 K
  solubility (mole fraction): 0.000151
In methanol, 278.15 K
  solubility (mole fraction): 0.000137
In methanol, 283.15 K
  solubility (mole fraction): 0.000168
In methanol, 288.15 K
  solubility (mole fraction): 0.000198
In methanol, 293.15 K
  solubility (mole fraction): 0.000238
In methanol, 298.15 K
  solubility (mole fraction): 0.000284
In methanol, 303.15 K
  solubility (mole fraction): 0.000338
In methanol, 308.15 K
  solubility (mole fraction): 0.000404
In methanol, 313.15 K
  solubility (mole fraction): 0.000478
In n-propanol, 278.15 K
  solubility (mole fraction): 3.6e-05
In n-propanol, 283.15 K
  solubility (mole fraction): 4.98e-05
In n-propanol, 288.15 K
  solubility (mole fraction): 5.29e-05
In n-propanol, 293.15 K
  solubility (mole fraction): 6.62e-05
In n-propanol, 298.15 K
  solubility (mole fraction): 8.61e-05
In n-propanol, 303.15 K
  solubility (mole fraction): 0.000108
In n-propanol, 308.15 K
  solubility (mole fraction): 0.000139
In n-propanol, 313.15 K
  solubility (mole fraction): 0.000164
In water, 278.15 K
  solubility (mole fraction): 4.23e-06
In water, 283.15 K
  solubility (mole fraction): 5.75e-06
In water, 288.15 K
  solubility (mole fraction): 8.03e-06
In water, 293.15 K
  solubility (mole fraction): 1.07e-05
In water, 298.15 K
  solubility (mole fraction): 1.27e-05
In water, 303.15 K
  solubility (mole fraction): 1.53e-05
In water, 308.15 K
  solubility (mole fraction): 2.05e-05
In water, 313.15 K
  solubility (mole fraction): 2.68e-05
